# Like-named read-outs stand apart in the source and are kept apart here.
# What was measured:
# PI3K p110γ = conditions: ref [23]–[25] (NVP-BEZ235), [28] (GDC-0941), [33] (CAL-101), [35] (CZC24832); read-out: Target IC50 p110γ; cited from earlier work
# [1] = test system: hSC-CMs (Cor.4U Cardiomyocytes); assay: Apoptosis assay (CellEvent Caspase-3/7 Green, IncuCyte ZOOM kinetics over 24 h); format: cell-based, human; parameters: key to Caspase / Caspase MEAN: % of time-matched vehicle control (green object area); conditions: for activity at 0.03 µM / activity at 0.1 µM / activity at 0.3 µM / activity at 1 µM / activity at 3 µM / activity at 30 µM: Homo sapiens, Cardiomyocyte, normalized to time-matched vehicle control; for Apoptosis (caspase-3/7 activation), result in words / Time to reach the maximum number of apoptotic cells: hSC-CMs, monitored over 24 h
# Procedure, shortened: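 Apoptosis was followed kinetically with a caspase-3/7 green fluorescent probe, imaging phase contrast and fluorescence every 2 h through 24 h compound exposure, after a 2 h baseline. Human stem cell-derived cardiomyocytes had been pre-cultured 4 days at 37 °C. Green object area per well was expressed relative to time-matched vehicle, with ≥3 replicates per concentration.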
# PI3K p110δ = conditions: ref [23]–[25] (NVP-BEZ235), [27] (LY 294002), [28] (GDC-0941), [33] (CAL-101); read-out: Target IC50 p110δ; cited from earlier work
# PI3K p110β = conditions: ref [23]–[25] (NVP-BEZ235), [27] (LY 294002), [28] (GDC-0941), [32] (TGX-221), [33] (CAL-101), [35] (CZC24832); read-out: Target IC50 p110β; cited from earlier work
# PI3K p110α = conditions: ref [23]–[25] (NVP-BEZ235), [27] (LY 294002), [28] (GDC-0941), [31] (HS-173), [33] (CAL-101); read-out: Target IC50 p110α; cited from earlier work
# [2] = test system: hSC-CMs (Cor.4U Cardiomyocytes); assay: ATP assay (CellTiter-Glo Luminescent Cell Viability Assay); format: cell-based, human; conditions: for viability at 0.03 µM / viability at 0.3 µM / viability at 3 µM / viability at 30 µM: Homo sapiens, Cardiomyocyte, normalized to time-matched DMSO control
# Procedure, shortened: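 Human stem-cell-derived Cor.4U cardiomyocytes (25,000–30,000/well), cultured 4 days at 37 °C, switched to serum-free BMCC medium 12 h before dosing. Cellular ATP quantified by CellTiter-Glo luminescence and normalized to time-matched DMSO controls; at least three replicates per concentration.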
# [3] = test system: hSC-CMs (Cor.4U Cardiomyocytes); assay: CardioExcyte 96 impedance and EFP recording (beating rate, base impedance); format: cell-based, human; conditions: for activity at 0.03 µM / activity at 0.3 µM / activity at 3 µM / activity at 30 µM: Homo sapiens, Cardiomyocyte, vs baseline before drug (taken as 100%)
# Procedure, shortened: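 hSC-CM monolayers (Cor.4U), cultured 4 days at 37 °C, 5% CO2, recorded spontaneously beating; impedance sampled at 1 kHz, EFP at 10 kHz. Beating rate taken as reciprocal of inter-spike interval in EFP. Each test concentration expressed as fractional change versus pre-drug baseline (100%).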
# GSK-3β = conditions: ref [46] (CHIR99021), [48] (TWS119); read-out: Target IC50 GSK-3β; cited from earlier work
smiles,measurement,setting,value
"CS(=O)(=O)N1CCN(Cc2cc3nc(-c4cccc5[nH]ncc45)nc(N4CCOCC4)c3s2)CC1 [GDC-0941, 2-(1 H -Indazol-4-yl)-6-(4-methanesulfonyl-piperazin-1-ylmethyl)-4-morpholin-4-yl-thieno[3,2-d]pyrimidine]",IC50,PI3K p110γ,[…]
same,activity at 0.03 µM,[1]; 2h,157%
same,activity at 0.03 µM,[1]; 24h,80%
same,activity at 0.1 µM,"[1]; 0.1 µM, 2h",138%
same,activity at 0.1 µM,"[1]; 0.1 µM, 24h",77%
same,activity at 0.3 µM,[1]; 2h,106%
same,activity at 0.3 µM,[1]; 24h,113%
same,activity at 1 µM,"[1]; 1 µM, 2h",104%
same,activity at 1 µM,"[1]; 1 µM, 24h",219%
same,"Apoptosis (caspase-3/7 activation), result in words",[1],induced apoptosis in hSC-CMs with a fast onset
same,Time to reach the maximum number of apoptotic cells,[1],≤ 12 h
O=c1cc(N2CCOCC2)oc2c(-c3ccccc3)cccc12 [LY 294002],viability at 0.03 µM,[2]; 2h,89%
same,viability at 0.03 µM,[2]; 24h,95%
same,viability at 0.3 µM,[2]; 2h,85%
same,viability at 0.3 µM,[2]; 24h,91%
same,viability at 3 µM,[2]; 2h,90%
same,viability at 3 µM,[2]; 24h,78%
same,viability at 30 µM,[2]; 2h,103%
same,viability at 30 µM,[2]; 24h,86%
same,Decrease of ATP level,"[2]; hSC-CMs, after 24 h of incubation",20–25%
same,activity at 0.03 µM,[1]; 2h,194%
same,activity at 0.03 µM,[1]; 24h,95%
same,activity at 0.3 µM,[1]; 2h,130%
same,activity at 0.3 µM,[1]; 24h,93%
same,activity at 3 µM,[1]; 2h,110%
same,activity at 3 µM,[1]; 24h,217%
same,activity at 30 µM,[1]; 2h,62%
same,activity at 30 µM,[1]; 24h,428%
same,"Apoptosis (caspase-3/7 activation), result in words",[1],induced apoptosis in hSC-CMs with a fast onset
same,Time to reach the maximum number of apoptotic cells,[1],≤ 12 h
same,activity at 0.03 µM,"[3]; 2h, read-out: BR",112%
same,activity at 0.03 µM,"[3]; 2h, read-out: Base Imp",72%
same,activity at 0.03 µM,"[3]; 24h, read-out: BR",111%
same,activity at 0.03 µM,"[3]; 24h, read-out: Base Imp",72%
same,activity at 0.3 µM,"[3]; 2h, read-out: BR",109%
same,activity at 0.3 µM,"[3]; 2h, read-out: Base Imp",71%
same,activity at 0.3 µM,"[3]; 24h, read-out: BR",94%
same,activity at 0.3 µM,"[3]; 24h, read-out: Base Imp",75%
same,activity at 3 µM,"[3]; 2h, read-out: BR",94%
same,activity at 3 µM,"[3]; 2h, read-out: Base Imp",70%
same,activity at 3 µM,"[3]; 24h, read-out: BR",63%
same,activity at 3 µM,"[3]; 24h, read-out: Base Imp",59%
same,activity at 30 µM,"[3]; 2h, read-out: BR",0%
same,activity at 30 µM,"[3]; 2h, read-out: Base Imp",50%
same,activity at 30 µM,"[3]; 24h, read-out: BR",0%
same,activity at 30 µM,"[3]; 24h, read-out: Base Imp",33%
same,"Effect on cardiomyocyte function in 3D surface plots (beating rate, base impedance, ATP), in words","[3]; hSC-CMs, 2 and 24 h",pronounced effects
same,Reduction of base impedance,"[3]; hSC-CMs, 2 and 24 h",more than 20%
same,Reduction of beating rate,"[3]; hSC-CMs, 2 and 24 h",more than 20%
Nc1cccc(-c2cc3c(Oc4cccc(O)c4)ncnc3[nH]2)c1 [TWS119],ATP,"[2]; 2h, 0.01 µM",94
same,ATP,"[2]; 2h, 0.1 µM",98
same,ATP,"[2]; 2h, 1 µM",98
same,ATP,"[2]; 2h, 10 µM",96
same,ATP,"[2]; 24h, 0.01 µM",102
same,ATP,"[2]; 24h, 0.1 µM",98
same,ATP,"[2]; 24h, 1 µM",98
same,ATP,"[2]; 24h, 10 µM",104
same,"Effect on ATP level, in words","[2]; hSC-CMs, up to the highest test concentrations",did not impact the ATP level
same,Caspase,"[1]; 2h, 0.01 µM",142
same,Caspase,"[1]; 2h, 0.1 µM",127
same,Caspase,"[1]; 2h, 1 µM",127
same,Caspase,"[1]; 2h, 10 µM",105
same,Caspase,"[1]; 24h, 0.01 µM",137
same,Caspase,"[1]; 24h, 0.1 µM",114
same,Caspase,"[1]; 24h, 1 µM",96
same,Caspase,"[1]; 24h, 10 µM",113
same,"Apoptosis (caspase-3/7 activation), result in words",[1],did not have any functionally-relevant effect
same,"Effect on cardiomyocyte function in 3D surface plots (beating rate, base impedance, ATP), in words",[3],minimal functional effect
same,"Effect on hSC-CMs function (base impedance and beating rate), in words",[3],did not produce functionally relevant changes
same,BR,"[3]; 2h, 0.01 µM",107
same,Base Imp,"[3]; 2h, 0.01 µM",90
same,BR,"[3]; 2h, 0.1 µM",102
same,Base Imp,"[3]; 2h, 0.1 µM",86
same,BR,"[3]; 2h, 1 µM",103
same,Base Imp,"[3]; 2h, 1 µM",91
same,BR,"[3]; 2h, 10 µM",103
same,Base Imp,"[3]; 2h, 10 µM",90
same,BR,"[3]; 24h, 0.01 µM",107
same,Base Imp,"[3]; 24h, 0.01 µM",86
same,BR,"[3]; 24h, 0.1 µM",105
same,Base Imp,"[3]; 24h, 0.1 µM",91
same,BR,"[3]; 24h, 1 µM",104
same,Base Imp,"[3]; 24h, 1 µM",88
same,BR,"[3]; 24h, 10 µM",99
same,Base Imp,"[3]; 24h, 10 µM",84
same,IC50,GSK-3β,30 nM

# From paper PMC8242589, “Cardiac Safety of Kinase Inhibitors – Improving Understanding and Prediction of Liabilities in Drug Discovery Using Human Stem Cell-Derived Models” (Frontiers in Cardiovascular Medicine, 2021)
